This experiment concerns H1 human embryonic stem cells. The experiment in a line: Dose ranging of compounds with activin A or GDF-8, SOX17 and cell number (Example 15). The experiment is classed as cell-based. Conditions: for SOX17 expression in combination with GDF-8 / cell numbers at the end of assay in combination with GDF-8: 78 nM to 10 μM compound with 100 ng/ml GDF-8; for SOX17 expression with activin A treatment: 78 nM to 10 μM compound with 100 ng/ml activin A, one or three days of compound. As to the method:
Stock cultures of human embryonic stem cells (H1 human embryonic stem cell line) were maintained in an undifferentiated, pluripotent state on reduced growth factor […]™ (BD Biosciences; Cat #356231)-coated dishes in MEF conditioned medium supplemented with 8 ng/ml bFGF (PeproTech Inc.; Cat #100-18B) with passage on average every four days. Passage was performed, by exposing cell cultures to a solution of 1 mg/ml dispase (Invitrogen; Cat #17105-041) for 5 to 7 minutes at 37° C. followed by rinsing the monolayer with MEF conditioned culture medium and gentle scraping to recover cell clusters. Clusters were centrifuged at low speed to collect a cell pellet and remove residual dispase. Cell clusters were split at a 1:3 or 1:4 ratio for routine maintenance culture or a 1:1 ratio for immediate assay. All human embryonic stem cell lines were maintained at passage numbers less than 50 and routinely evaluated for normal karyotype and absence of mycoplasma.
Cell clusters were evenly resuspended in MEF conditioned medium supplemented with 8 ng/ml bFGF and seeded onto reduced growth factor […]™-coated 96-well Packard VIEWPLATES (PerkinElmer; Cat #6005182) in volumes of 0.1 ml/well. Daily feeding was conducted by aspirating spent culture medium from each well and replacing with an equal volume of fresh medium. Plates were maintained at 37° C., 5% CO2 throughout the duration of assay.
Assay was initiated by aspirating the culture medium from each well and adding back aliquots (100 μl) of test medium. Test conditions were performed in quadruplicate over a total four-day assay period, feeding daily by aspirating and replacing the medium from each well with fresh test medium. […] Test compounds in this assay included six of the compounds of the present invention: Compound 181, Compound 180, Compound 19, Compound 202, Compound 40, and Compound 34, and a commercial GSK31 inhibitor BIO (EMD Chemicals, Inc.; Cat #361550). On the first day of assay, wells were treated with various control or experimental conditions. Control conditions, with final assay concentrations as indicated, were as follows: 1) growth medium alone; 2) 20 ng/ml Wnt3a only R&D Systems; Cat #1324-WN/CF); 3) 100 ng/ml activin A (PeproTech; Cat #120-14); 4) 100 ng/mlactivin A and 20 ng/ml Wnt3a; 5) 100 ng/ml GDF-8 (R&D Systems, Cat #788-G8); 6) 100 ng/ml GDF-8 and 20 ng/ml Wnt3a. Test compounds were diluted two-fold in series to yield a concentration range from 78 nM to 10 μM in the final assay. Experimental test samples combined each individual compound dilution series with 100 ng/ml activin A or 100 ng/ml GDF-8, both treatment sets in the absence of Wnt3a. On the second and third day of assay, some wells continued to be treated with 20 ng/ml Wnt3a or diluted test compound in combination with either activin A or GDF-8. In other wells, activin A or GDF-8 treatment continued on the second and third day of assay, but Wnt3a or diluted test compound was removed.
At the conclusion of culture, assay plates were washed once with PBS (Invitrogen; Cat #14190), fixed with 4% paraformaldehyde (Alexis Biochemical; Cat #ALX-350-011) at room temperature for 20 minutes, then washed three times with PBS and permeabilized with 0.5% Triton X-100 (Sigma; Cat #T8760-2) for 20 minutes at room temperature. Cells were washed again three times with PBS and blocked with 4% chicken serum (Invitrogen; Cat #16110082) in PBS for 30 minutes at room temperature. Primary antibody (goat anti-human SOX17; R&D Systems; Cat #AF1924) was diluted 1:100 in 4% chicken serum and added to each well for two hours at room temperature. After washing three times with PBS, Alexa Fluor 488 conjugated secondary antibody (chicken anti-goat IgG; Invitrogen; Cat #A21467) diluted 1:200 in PBS was added to each well. To counterstain nuclei, 5 μg/ml Hoechst 33342 (Invitrogen; Cat #H3570) was added for fifteen minutes at room temperature. Plates were washed once with PBS and left in 100 μl/well PBS for imaging. […]

Consider `CN1CCC(=O)NCCCc2cncc(c2)-c2ncnc(n2)Nc2cccc(c2)C1` [Compound 19, 14-Methyl-3,5,7,14,18,24,28-heptaazatetracyclo[20.3.1.1˜2,6˜0.1˜8,12˜]octacosa-1(26), 2(28), 3,5,8(27), 9,11,22,24-nonaen-17-one], for which the “SOX17 expression in combination with GDF-8” value (from here on “SOX17 expression … with GDF-8”) was “significantly improved SOX17 expression”, the “cell numbers at the end of assay in combination with GDF-8” value (“cell numbers at the end of assay” below) is “enhanced cell numbers” and the “SOX17 expression with activin A treatment” value is listed as “did not enhance SOX 17 expression”.

As for `O=C1CCN2CCN(CC2)Cc2cc(Cl)cc(c2)Nc2ncnc(n2)-c2cncc(c2)CCCN1` [Compound 34, 5-Chloro-1,8,10,12,16,22,26,32-octaazapentacyclo[24.2.2.1˜3.7˜0.1˜9,13˜0.1˜14.18˜]tritriaconta-3(33), 4,6,9(32), 10,12,14(31), 15,17-nonaen-23-one], the “SOX17 expression … with GDF-8” value was “significantly improved SOX17 expression”, the “cell numbers at the end of assay” value is recorded as “enhanced cell numbers” and the “SOX17 expression with activin A treatment” value is reported as “did not enhance SOX 17 expression”.

In the case of `C=CCN1CC(=O)NCCCc2cncc(c2)-c2ncnc(n2)Nc2cccc(c2)C1` [Compound 40, 14-Prop-2-en-1-yl-3,5,7,14,17,23,27-heptaazatetracyclo[19.3.1.1˜2.6˜0.1˜8,12˜]heptacosa-1(25), 2(27), 3,5,8(26), 9,11,21,23-nonaen-16-one], the “SOX17 expression … with GDF-8” value is on record as “significantly improved SOX17 expression”, the “cell numbers at the end of assay” value was “enhanced cell numbers” and the “SOX17 expression with activin A treatment” value is “did not enhance SOX 17 expression”.

Regarding “Activin A: recombinant human activin A (PeproTech), TGF-beta family member”, where the note is “100 ng/ml activin A versus 100 ng/ml GDF-8, alone or with Wnt3a”, the “SOX17 expression, control treatments” value is reported as “significantly higher SOX17 expression”.

The record behind these values is patent US9593305B2, “Differentiation of pluripotent stem cells” (Janssen Biotech, Inc., priority 2008, dated 2017).
